In one series the test system is RG2 glioma cells. The series can be described thus: Autophagic flux assay (LC3-II western blot in the presence of bafilomycin-A1). The class given is cell-based, rat. The settings on record: RG2 glioma cells, 4 h, 50 nM bafilomycin-A1, western blot. As for the experimental part:
In the assay, cells are treated with subtoxic concentrations of bafilomycin-A, which blocks lysosomal acidification. This prevents autophagosome fusion with lysosomes at a specific point. For example, RG2 glioma cells (or other cell types) are “clamped” by addition of 10-50 nM bafilomycin-A1 to block autophagosome fusion with lysosomes and eliminate autophagy clearance. Then, autophagy flux is measured by the conjugation of phosphatidylethanolamine to LC3-I, yielding an electrophoretically separable LC3-II by western blot. LC3-II acts as a link between nascent autophagosomes and cargo being directed into these structures. An autophagy enhancer will increase LC3-II in the presence of bafilomycin, whereas a compound that inhibits autophagy completion will not do so. Thus, the L3A-I to LC3A-II conversion in the presence of bafilomycin-A1 constitutes a valid measure of autophagy.
For the assays, rat glioma cells RG2 (ATCC® CRL-2433™; RG2 cells) were cultured. […] The cells were then incubated for an additional 4 h. At termination, the cell culture medium was removed, cells were washed with PBS and lysed on ice in Pierce RIPA buffer containing protease and phosphatase inhibitors.
Western Blotting: The proteins were electrophoresed and wet-blotted to polyvinylidine difluoride membranes, blocked overnight in 4% bovine serum albumin, and developed using antibodies obtained from Cell Signaling Technology (L3A: cat #. 4599; ULK1: cat #. 8054, ULK1(p757): cat #. 6880).
RG2 glioma cells were treated without drug (first column in FIG. 8A) or 4 h with 50 nM bafilomycin-A1 (BAF), the indicated concentration of LK, or the phosphonate analog 2-isopropyl-LK-3-phosphonate. The western blot results are shown in FIG. 8A, where the lower band corresponds to LC3-II. An increase in the intensity of this band in the presence of bafilomycin-A1 indicates increased autophagic flux. […] Similar results are shown in FIG. 9 with respect to the LK-P compound 2-butyl-lanthionine-phosphonate (also referred to as 2-n-butyl-lanthionine-phosphonate or 2-n-butyl-LK-P).
RG2 glioma cells (American Tissue Type Collection, ATTC, Rockville MD USA) were treated for 4 h with 50 nM bafilomycin-A1 (previously dissolved to 1000× final concentration in dimethylsulfoxide). Thirty minutes after addition of bafilomycin, cells were treated with test agents at 100× final concentration. Cells were lysed in RIPA buffer containing protease and phosphatase inhibitors. Protein concentration was assayed and normalized to constant values (typically 5-7 mg/mL). Proteins were electrophoresed across 4-20% polyacrylamide gels and wet blotted onto polyvinylidine difluoride (PVDF) membranes. Proteins were blotted with commercially available antibodies against LC3.
In general terms: A western blot detects proteins with antibodies after separation by electrophoresis.

Series [1] can be described thus: Stability of the isolated solid to high vacuum. The class given is physicochemical. The settings on record: isolated white solid, at least overnight.
Another series relates to HeLa cells. The series can be described thus: Rescue of HeLa cells from TNFa toxicity, tetrazolium reduction assay. It is filed as cell-based. The settings on record: 20 h 10 ng/mL TNFa, 10 micromolar cycloheximide. As for the experimental part: HeLa cells were treated 20 h with 10 ng/mL recombinant human TNFa in the presence of 10 micromolar cycloheximide and viability measured by tetrazolium reduction assay.

The subject of a further series is ULK1 system in RG2 cells. Put plainly: ULK1/ULK1(p757) quantitative autophagy stimulation assay. The class given is cell-based, rat. The settings on record: 24 h in RG2 cells; read-out: EC50 on the ULK1 system (ULK1 increase and ULK1(p757) decrease).
For a further series, the system named is SOD1^G93A mouse. To be noted: cited from earlier work.
The subject of a further series is 3×Tg-AD mouse. To be noted: cited from earlier work.
For another series, the system named is pMCAO. To be noted: after pMCAO; cited from earlier work.
A further series has as its system C6 glioma tumor. The settings on record: C6 glioma xenograft into rat cortices; cited from earlier work.
The conditions of series [2]: measurement of brain LKE levels and animal studies; cited from earlier work.
A further series deals with people with ALS. The settings on record: cited from earlier work.

Each structure is given as a SMILES string. “Also recorded” adds a separate entry of the source.

Usually EC50 stands for the concentration at which the effect is half-maximal.

Description for ULK1 system in RG2 cells: For validation purposes, a second, quantitative autophagy stimulation assay was utilized.

For the molecule `CCCCC1=C(P(=O)(O)O)N[C@H](C(=O)O)CS1`, the “autophagic flux / autophagy stimulation (LC3-II band in the presence of bafilomycin-A1)” value (“autophagic flux / autophagy stimulation” below) in the series on RG2 glioma cells is “comparable activity; also recorded: stimulate autophagy to varying degrees; also recorded: greater autophagy activation effect than LKE”; in the series on RG2 glioma cells (listed as 2-butyl-LK-P), “more effective at inducing autophagic flux than, inter alia, LK-E”. Further, the “stability to high vacuum pressures” value in series [1] was “stable to high vacuum pressures at least overnight without visual or spectral decomposition”.
On to `CC(C)C1=C(P(=O)(O)O)NCCS1` [2-isopropyl-AECK-P], for which the “autophagic flux / autophagy stimulation” value is recorded as “greater autophagy activation effect than LKE” in the series on RG2 glioma cells and “comparable activity” with RG2 glioma cells (listed as 2-isopropyl AECK-P).
With `CC(C)C1=C(P(=O)(O)O)N[C@H](C(=O)O)CS1` [2-isopropyl-LK-P, 2-isopropyl lanthionine ketimine phosphonate], the entries for the “autophagic flux / autophagy stimulation” value with RG2 glioma cells, in the series on RG2 glioma cells (listed as 2-isopropyl lanthionine-ketimine-phosphonate) and in the series with RG2 glioma cells (listed as 2-isopropyl-lanthionine-ketimine-3-phosphonate) were “stimulates autophagy in RG2 cells at low micromolar concentrations; also recorded: much more potent stimulator of autophagy than LK; also recorded: comparable activity; also recorded: stimulate autophagy to varying degrees; also recorded: increase autophagic flux”, “clearly was more potent at 10 mM than was LK” and “clearly more potent at 10 μM than LK was”, respectively. Further, the “cell death stemming from TNFa treatment” value in the series with HeLa cells was “reduced cell death”. Also, the EC50 in the series on HeLa cells (Homo sapiens, HeLa, compound 1 h before, read-out: EC50% for reduction of cell death from TNFa) was about 10 mM. For the same molecule, in series [1], the “stability to high vacuum pressures” value is given as “stable to high vacuum pressures at least overnight without visual or spectral decomposition”.
For `CCOC(=O)[C@@H]1CSC(CC)=C(C(=O)O)N1` [Compound 2-ethyl-LKE], in the series on RG2 glioma cells, the “autophagic flux / autophagy stimulation” value is recorded as “stimulate autophagy in RG2 cells”.
The same measure, in the same setting: then `O=C(O)C1=CSC[C@@H](C(=O)O)N1` [LK, (5R)-3,5,-dicarboxy-1-thia-4-aza-2-cyclohexene, reference compound], with “increase autophagic flux”.
Turning to `CCOC(=O)C1=CSCC(C(=O)O)N1` (stereo not shown) [LKE, lanthionine ketenamine ethyl ester], in the series on RG2 glioma cells, the “autophagic flux / autophagy stimulation” value was “stimulate autophagy to varying degrees”. In addition, in the series with ULK1 system in RG2 cells, the EC50 was about 50 nM. Further, the “lifespan and motor function” value in the series with SOD1^G93A mouse was “increases lifespan and slows decline of motor function”. Also, the “amyloid burden, phospho-tau, microglial activation, cognitive decline” value with 3×Tg-AD mouse was “decreases amyloid burden inside neurons and in plaques, decreases phospho-tau accumulation, decreases microglial activation, and slows cognitive decline”. In addition, the “infarct volume and functional recovery” value in the series with pMCAO is “decreases infarct volume and improves functional recovery”. In addition, in the series on C6 glioma tumor, the tumor growth result is “slows growth of C6 glioma tumor”. Further, the “βββ (blood brain barrier) penetrability” value in series [2] was “good βββ penetrability”.
As to `Nc1nc2ccc(OC(F)(F)F)cc2s1` [Riluzole], the prolongation of life in the series on people with ALS (ALS patients) is 2-3 months.
For the molecule `CC1=NN(c2ccccc2)C(=O)C1` [edaravone], in the series with people with ALS (people with ALS), the “clinical decline in daily functioning” value is reported as “slows the clinical decline in daily functioning”.

These data come from patent publication US12139505B2, “Compositions useful in therapy of autophagy-related pathologies, and methods of making and using the same” (The University of Toledo, priority 2017, dated 2024).
